The values below come from patent US20090221554A1, “METHOD OF TREATING COGNITIVE IMPAIRMENT” (priority 2008, published 2009).

For experiment [1], the system named is cognitive impairment induced by scopolamine. The experiment is described as follows: Passive avoidance task, scopolamine-induced cognitive impairment in mice. Format: in vivo. As to the method: Male mice of the ICR strain (Charles River Laboratories Japan, Inc.) at the ages of 8 to 9 weeks were used in the experiment. They were housed in a cage in group of 3 or 4 mice, in a room maintained at around 22° C. with a 12-h light/dark cycle. Food and water were available ad libitum. All animal care and treatments were conducted in accordance with the Guidelines for the Care and Use of Laboratory Animals established at the Central Research Laboratory, Zenyaku Kogyo Co., Ltd.
Compound 1 and donepezil were suspended in 1% carboxymethyl cellulose (CMC). […] For the coadministration studies of Compound 1 and donepezil, both drug suspensions were mixed together and this mixed suspension was injected. All drugs were prepared immediately before use and orally administered in a volume of 10 ml/kg.
The passive avoidance apparatus (Neuroscience Inc.) consisted of an illuminated chamber and a larger dark chamber. Two chambers were separated by a guillotine door. Oral administration of compound 1 at doses of 0.0001 mg/kg or 0.001 mg/kg and/or donepezil at doses of 0.01 and 0.1 mg/kg was given 60 min before the acquisition trial. […] Matched control group received vehicle only. In the acquisition trial, each mouse was placed in the illuminated chamber. Immediately after the entry into the dark chamber, the door was closed and inescapable scrambled electric shock (100 V, 0.4 mA, 1.5 sec) was delivered through the floor grid. Twenty-four h later, each mouse was placed in the illuminated chamber for retention trial. The interval between the placement in the illuminated chamber and the entry into the dark chamber was measured as step through latency (maximum 300 sec).
P level of <0.05 was considered indicative of statistical significance for the tests.

Experiment [2] concerns extracellular level of ACh in the hippocampus. The experiment is described as follows: Extracellular level of acetylcholine (ACh) in the rat hippocampus (microdialysis, HPLC-ECD). Format: in vivo, rats. The note with it: vs 1% CMC. The protocol: Food and water were available ad libitum. All animal care and treatments were conducted in accordance with the Guidelines for the Care and Use of Laboratory Animals established at the Central Research Laboratory, Zenyaku Kogyo Co., Ltd.

SMILES strings stand for the structures.

In the case of `O=C1N=C2C=CC=CN2C12Cc1ccccc1C2` [compound 1, spiro[imidazo[1,2-a]pyridin-2(3H)-one-3,2′-indan]], the step-through latency result in experiment [1] (compound 1 0.0001 mg/kg p.o. 60 min before acquisition, scopolamine 1 mg/kg i.p., retention trial 24 h, vs 1% CMC + scopolamine) is “did not significantly prolong”; in experiment [1] (compound 1 0.001 mg/kg p.o., scopolamine 1 mg/kg i.p., vs 1% CMC + scopolamine, P<0.05) it was “prolonged”. Moreover, in experiment [2] (compound 1 0.001 mg/kg p.o.), the “extracellular level of ACh in the hippocampus” value is recorded as “did not significantly increase”.

Consider `COc1cc2c(cc1OC)C(=O)C(CC1CCN(Cc3ccccc3)CC1)C2` (stereo not shown) [donepezil], for which the step-through latency result in experiment [1] (donepezil 0.01 mg/kg p.o., scopolamine 1 mg/kg i.p., vs 1% CMC + scopolamine) is “did not significantly prolong”; in experiment [1] (donepezil 0.1 mg/kg p.o., scopolamine 1 mg/kg i.p., vs 1% CMC + scopolamine, P<0.05) it was “prolonged”. For the same molecule, in experiment [2] (donepezil 1 mg/kg p.o.), the “extracellular level of ACh in the hippocampus” value was “did not significantly increase”.

With `CN1[C@@H]2C[C@@H](OC(=O)[C@H](CO)c3ccccc3)C[C@H]1[C@@H]1O[C@@H]12` [scopolamine], the step-through latency entry in experiment [1] (1% CMC + scopolamine 1 mg/kg i.p. vs 1% CMC + saline control, P<0.01) is “markedly shorter”.
